Read-outs that look alike come from different tables or passages of the source.
Biological target: recombinant eIF4E (Homo sapiens (Human), UniProt P06730)
Assay: Fluorescence polarization competition assay for eIF4E binding potency
Procedure, shortened: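 Competition of test compound against 20 nM EDA-m^7GDP-ATTO-550 for 75 nM recombinant eIF4E, pre-incubated 5 min, in 20 mM Tris pH 7.5, 100 mM NaCl, 1 mM DTT, 0.02% Tween-20, 1% DMSO. Equilibrated 30 min at room temperature, dark; fluorescence polarization read. IC50 from 8-point, 3-fold dilution series.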

[1] = fluorescence polarization competition, 75 nM recombinant eIF4E, 20 nM EDA-m7GDP-ATTO-550, IC50 class, read-out: elF4E FP
[2] = inhibition of eIF4E/EDA-m7GDP-ATTO-550 binding by 50%, Table 4B calculated values, read-out: IC50

recombinant eIF4E, sequence (P06730 whole entry): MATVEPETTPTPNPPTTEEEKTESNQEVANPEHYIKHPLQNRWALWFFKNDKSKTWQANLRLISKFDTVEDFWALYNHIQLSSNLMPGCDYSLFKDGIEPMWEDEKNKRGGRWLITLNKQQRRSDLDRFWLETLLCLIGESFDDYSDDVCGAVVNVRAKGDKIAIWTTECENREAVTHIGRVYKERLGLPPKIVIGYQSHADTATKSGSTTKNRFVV

IC50 [1] [nM]	IC50 [2] [nM]	SMILES
< 50	26.4	Cc1nc2c(ccc3cnncc32)c(=O)n1CCOc1ccc(Cl)cc1-c1ccnc2c(C(=O)O)csc12 [compound 659]
50 to 1000	258	Cc1nc2cc(C(F)(F)F)cc(C#N)c2c(=O)n1CCOc1ccc(Cl)cc1-c1cncc(-c2nn[nH]n2)c1 [compound 660]
< 50	12.1	Cc1nc2cc(C(F)(F)F)cc(C#N)c2c(=O)n1CCOc1ccc(Cl)cc1-c1ccnc2c(C(=O)O)cnn12 [compound 661]
50 to 1000	144	Cc1nc2cc(C(F)(F)F)cc(C#N)c2c(=O)n1CCOc1ccc(Cl)cc1-c1ccnc(-c2nnn[nH]2)c1 [compound 662]
50 to 1000	332	Cc1nc2cc(C(F)(F)F)cc(C#N)c2c(=O)n1CCOc1ccc(Cl)cc1-c1ccnc2c(O)csc12 [compound 663]
50 to 1000	153	COC(=O)c1sc2cc(-c3cc(Cl)ccc3OCCn3c(C)nc4cc(C(F)(F)F)cc(C#N)c4c3=O)cnc2c1O [compound 664]
< 50	16.5	Cc1c(CC#Cc2ccc(Cl)cc2-c2ccnc3c(C(=O)O)csc23)c(=O)c2c(C#N)cc(C(F)(F)F)cc2n1C [compound 665]
50 to 1000	268	Cc1nc2cc(C(F)(F)F)cc(C#N)c2c(=O)n1CCOc1ccc(Cl)cc1-c1ccnc2c(C(=O)O)c(C(F)(F)F)sc12 [compound 666]
< 50	46.7	Cc1nc2cc(C(F)(F)F)cc(C#N)c2c(=O)n1CCOc1ccc(Cl)cc1-c1ccnc2c(C(=O)O)c(C(C)C)sc12 [compound 667]
< 50	7.76	Cc1cc(-c2cc(Cl)ccc2OCCn2c(C)nc3cc(C(F)(F)F)cc(C#N)c3c2=O)c2sc(C)c(C(=O)O)c2n1 [compound 668]
< 50	36.4	Cc1c(CC#Cc2ccc(Cl)cc2-c2ccnc3c(C(=O)O)csc23)c(=O)c2c(C#N)c(Cl)c(C(F)(F)F)cc2n1C [compound 669]
< 50	18	Cc1cc(-c2cc(Cl)ccc2OCCn2c(C)nc3cc(C(F)(F)F)c(CN(C)C)c(C#N)c3c2=O)c2sc(C)c(C(=O)O)c2n1 [compound 670]
50 to 1000	77.7	Cc1cc(-c2cc(Cl)ccc2OCCn2c(C)nc3c(ccc4cnncc43)c2=O)c2scc(C(=O)O)c2n1 [compound 671]
50 to 1000	106	Cc1nc2cc(C(F)(F)F)cc(C#N)c2c(=O)n1CCOc1ccc(Cl)cc1-c1cc(C2CC2)nc2c(C(=O)O)csc12 [compound 672]
< 50	25.3	Cc1cc(-c2cc(Cl)ccc2OCCn2c(C)nc3c(C)ncc(C#N)c3c2=O)c2scc(C(=O)O)c2n1 [compound 673]
< 50	–	Cc1ncc(C#N)c2c(=O)n(CCOc3ccc(Cl)cc3-c3ccnc4c(C(=O)O)csc34)c(C)nc12 [compound 674]
< 50	7.77	Cc1cccc(-c2c(C(F)(F)F)cc3nc(C)n(CCOc4ccc(Cl)cc4-c4cc(C)nc5c(C(=O)O)csc45)c(=O)c3c2C#N)n1 [compound 675]
< 50	6.22	Cc1cc(-c2cc(Cl)ccc2OCCn2c(C)nc3cc(C(F)(F)F)c(N4CCN(C)CC4)nc3c2=O)c2scc(C(=O)O)c2n1 [compound 676]
< 50	5.44	Cc1cc(-c2cc(Cl)ccc2OCCn2c(C)nc3c(C(F)(F)F)cc(N4CCN(C)CC4)nc3c2=O)c2scc(C(=O)O)c2n1 [compound 677]
50 to 1000	53.8	Cc1cc(-c2cc(Cl)ccc2OCCn2c(C)nc3ccc(N4CCN(C)CC4)nc3c2=O)c2scc(C(=O)O)c2n1 [compound 678]
50 to 1000	160	Cc1cc(-c2cc(Cl)ccc2OCCn2c(C)nc3ccc(N(C)C)nc3c2=O)c2scc(C(=O)O)c2n1 [compound 679]
50 to 1000	56.6	Cc1cc(-c2cc(Cl)ccc2OCCn2c(C)nc3c(C(F)(F)F)cc(Cl)nc3c2=O)c2scc(C(=O)O)c2n1 [compound 680]
< 50	6.21	Cc1nc2cc(C(F)(F)F)c(N3CCN(C)CC3)nc2c(=O)n1CC#Cc1ccc(Cl)cc1-c1ccnc2c(C(=O)O)csc12 [compound 682]
< 50	40.3	Cc1cccc(-c2c(Cl)cc3nc(C)n(CCOc4ccc(Cl)cc4-c4cc(C)nc5c(C(=O)O)c(C)sc45)c(=O)c3c2C#N)n1 [compound 683]
< 50	15	Cc1cc(F)cc(-c2c(C(F)(F)F)cc3nc(C)n(CCOc4ccc(Cl)cc4-c4cc(C)nc5c(C(=O)O)csc45)c(=O)c3c2C#N)n1 [compound 684]
< 50	–	Cc1cc2nc(C)n(CCOc3ccc(Cl)cc3-c3cc(C)nc4c(C(=O)O)csc34)c(=O)c2c(C#N)n1 [compound 685]

IC50 [1] [nM]	IC50 [2] [nM]	SMILES
< 50	26.5	Cc1cc(-c2cc(Cl)ccc2OCCn2c(C)nc3cc(C(F)(F)F)c(-c4ccnc(C)c4C)c(C#N)c3c2=O)c2scc(C(=O)O)c2n1 [compound 686]
< 50	13.5	Cc1cc(-c2cc(Cl)ccc2OCCn2c(C)nc3cc(C(F)(F)F)c(N4CC(F)(F)C4)c(C#N)c3c2=O)c2scc(C(=O)O)c2n1 [compound 687]
< 50	22.8	Cc1cc(-c2cc(Cl)ccc2OCCn2c(C)nc3cc(Cl)c(N4CC(F)(F)C4)c(C#N)c3c2=O)c2scc(C(=O)O)c2n1 [compound 688]
< 50	11.5	Cc1cc(-c2cc(Cl)ccc2OCCn2c(C)nc3cc(Cl)c(N4CC(C(F)(F)F)C4)c(C#N)c3c2=O)c2scc(C(=O)O)c2n1 [compound 689]
< 50	5.95	Cc1cc(-c2cc(Cl)ccc2OCCn2c(C)nc3cc(Cl)c(N4CCC(F)(F)C4)c(C#N)c3c2=O)c2scc(C(=O)O)c2n1 [compound 690]
< 50	7.17	Cc1cc(-c2cc(Cl)ccc2OCCn2c(C)nc3cc(Cl)c(N4CC(C)(C)C4)c(C#N)c3c2=O)c2scc(C(=O)O)c2n1 [compound 691]
< 50	5.97	Cc1cc(-c2cc(Cl)ccc2OCCn2c(C)nc3cc(Cl)c(N)c(C#N)c3c2=O)c2scc(C(=O)O)c2n1 [compound 692]
< 50	15	Cc1cc(-c2cc(Cl)ccc2OCCn2c(C)nc3cc(Cl)cc(C#N)c3c2=O)c2scc(C(=O)O)c2n1 [compound 693]
< 50	19.1	CNc1c(Cl)cc2nc(C)n(CCOc3ccc(Cl)cc3-c3cc(C)nc4c(C(=O)O)csc34)c(=O)c2c1C#N [compound 694]
< 50	1.05	Cc1cc(-c2cc(Cl)ccc2OCCn2c(C)nc3cc(Cl)c(O)c(C#N)c3c2=O)c2scc(C(=O)O)c2n1 [compound 695]
< 50	8.94	Cc1cc(-c2cc(Cl)ccc2OCCn2c(C)nc3cc(Cl)c(N(C)C)c(C#N)c3c2=O)c2scc(C(=O)O)c2n1 [compound 696]
< 50	10.2	Cc1cc(-c2cc(Cl)ccc2OCCn2c(C)nc3cc(Cl)c(N4CCCC4=O)c(C#N)c3c2=O)c2scc(C(=O)O)c2n1 [compound 697]
< 50	3.4	Cc1cc(-c2cc(Cl)ccc2OCCn2c(C)nc3cc(Cl)c(N4CC(O)C4)c(C#N)c3c2=O)c2scc(C(=O)O)c2n1 [compound 698]
< 50	22.4	Cc1cc(-c2cc(Cl)ccc2OCCn2c(C)nc3cc(Cl)c(Nc4cccnc4)c(C#N)c3c2=O)c2scc(C(=O)O)c2n1 [compound 700]
< 50	19.2	COC1CN(c2c(Cl)cc3nc(C)n(CCOc4ccc(Cl)cc4-c4cc(C)nc5c(C(=O)O)csc45)c(=O)c3c2C#N)C1 [compound 701]
< 50	12.7	Cc1cc(-c2cc(Cl)ccc2OCCn2c(C)nc3cc(Cl)c(N4CC(S(C)(=O)=O)C4)c(C#N)c3c2=O)c2scc(C(=O)O)c2n1 [compound 702]
< 50	3.18	Cc1cc(-c2cc(Cl)ccc2OCCn2c(C)nc3cc(Cl)c(N4CC(C)(CO)C4)c(C#N)c3c2=O)c2scc(C(=O)O)c2n1 [compound 703]
50 to 1000	89	CSC1CN(c2c(Cl)cc3nc(C)n(CCOc4ccc(Cl)cc4-c4cc(C)nc5c(C(=O)O)csc45)c(=O)c3c2C#N)C1 [compound 704]
< 50	19.1	Cc1nc2cc(C(F)(F)F)c(N3CCN(C)CC3)c(C#N)c2c(=O)n1CCOc1ccc(Cl)cc1-c1ccnc2ccsc12 [compound 705]
50 to 1000	–	Cc1ncc(F)cc1-c1c(C(F)(F)F)cc2nc(C)n(CCOc3ccc(Cl)cc3-c3ccnc4ccsc34)c(=O)c2c1C#N [compound 706]
< 50	17.8	Cc1nc2cnc(N3CCN(C)CC3)c(C#N)c2c(=O)n1CCOc1ccc(Cl)cc1-c1ccnc2c(C(=O)O)csc12 [compound 707]
50 to 1000	87.8	Cc1cc(-c2cc(Cl)ccc2OCCn2c(C)nc3cc(C(F)(F)F)c(C4CCCN4C)c(C#N)c3c2=O)c2scc(C(=O)O)c2n1 (centres unmarked) [compound 708]
50 to 1000	56.7	Cc1cc(-c2cc(Cl)ccc2OCCn2c(C)nc3cc(C(F)(F)F)c(CCCN(C)C)c(C#N)c3c2=O)c2scc(C(=O)O)c2n1 [compound 709]
< 50	31.6	Cc1cc(-c2cc(Cl)ccc2OCCn2c(C)nc3cc(C(C)N(C)C)c(OC(F)F)c(C#N)c3c2=O)c2scc(C(=O)O)c2n1 (centres unmarked) [compound 710]
50 to 1000	77.5	Cc1cc(-c2cc(Cl)ccc2OCCn2c(C)nc3cc(C(F)(F)F)c(C(C)N(C)C)c(C#N)c3c2=O)c2scc(C(=O)O)c2n1 (centres unmarked) [compound 711]
< 50	19.6	Cc1cc(-c2cc(Cl)ccc2OCCn2c(C)nc3cc4c(c(C#N)c3c2=O)CN(C)C4)c2scc(C(=O)O)c2n1 [compound 712]

Reference: patent publication US11286268B1, “EIF4E-inhibiting compounds and methods” (EFFECTOR THERAPEUTICS, INC., priority 2019, dated 2022)
